Laboratory results: patent publication US9624520B2, “Biosynthetically generated pyrroline-carboxy-lysine and site specific protein modifications via chemical derivatization of pyrroline-carboxy-lysine and pyrrolysine residues” (Novartis AG, priority 2008, dated 2017)
“Also recorded” adds a separate entry of the source. Structures can show the parent of a compound that is named as a salt.

What was measured:
HK100 cells = test: Incorporation of other analogues and precursors into FAS-TE L2222TAG (Ni-NTA, SDS-PAGE, Bradford); format: cell-based, Escherichia coli; settings: for full-length protein production / PCL biosynthesis from precursor: Escherichia coli cells with pylB/pylC/pylD/pylS/pylT; for Bradford: 25 ml culture
[1] = pH 5
pylS tRNA synthetase = target: T1, pylS tRNA synthetase (Methanosarcina mazei, UniProt Q8PWY1); test: Incorporation test with synthetic pyrrolysine analogues (full-length hRBP4 mutant #6); format: cell-based; settings: 2 or 5 mM analogue, HEK293F cells with pylT/pylS only, Western blot and SDS-PAGE
T1 construct: expressed in transfected cells; host or cells: HEK293F
Description: In parallel to the above experiment, the production of full-length hRBP4 Phe122PCL protein (mutant #6) was also measured in the presence of a series of synthetic pyrrolysine analogues designed with an acetyl moiety for chemical derivatization after protein incorporation (FIG. 14B). The synthetic analogues were prepared as described in Example 19. pRSRBP was co-transfected into HEK293F cells with pCMVpyS which supplies one gene copy of pylT tRNA and of pylS tRNA synthetase. Depending on solubility, the synthetic analogues were added to the media either at 2 or 5 mM final concentration.

HEK293F cells = test: Incorporation test with putative PCL and pyrrolysine precursors (full-length hRBP4 Phe122PCL); format: cell-based, human; settings: 5 mM precursor; HEK293F cells with pylT, pylS, pylB, pylC, pylD; Western blot and SDS-PAGE of Ni-NTA purified samples
Description: The production of full-length hRBP4 Phe122PCL protein (mutant #6) was measured in the presence of the putative PCL precursor D-ornithine, D-proline, D-arginine, D-glutamic acid, 4-hydroxyl-D-proline and 2-pyrrolidone-5-carboxylic acid (FIGS. 13A and B, FIG. 14A). pRSRBP was co-transfected into HEK293F cells with pCMVpyS, pCMVpyB, pCMVpyC and pCMVpyD and cells were grown in the presence of 5 mM of the putative precursor (FIG. 14A) as described in Example 2.

PylD = test: NMR evaluation of Lys-Nε-D-Orn as substrate for PylD; format: biochemical, Methanosarcina mazei
[2] = Compound stability (degradation measured by nuclear magnetic resonance spectroscopy); format: physicochemical
[3] = purified FAS-TE from HK100 cells with pylB/pylC/pylD/pylS/pylT (lanes 5-11)

T1 sequence (Q8PWY1 whole entry): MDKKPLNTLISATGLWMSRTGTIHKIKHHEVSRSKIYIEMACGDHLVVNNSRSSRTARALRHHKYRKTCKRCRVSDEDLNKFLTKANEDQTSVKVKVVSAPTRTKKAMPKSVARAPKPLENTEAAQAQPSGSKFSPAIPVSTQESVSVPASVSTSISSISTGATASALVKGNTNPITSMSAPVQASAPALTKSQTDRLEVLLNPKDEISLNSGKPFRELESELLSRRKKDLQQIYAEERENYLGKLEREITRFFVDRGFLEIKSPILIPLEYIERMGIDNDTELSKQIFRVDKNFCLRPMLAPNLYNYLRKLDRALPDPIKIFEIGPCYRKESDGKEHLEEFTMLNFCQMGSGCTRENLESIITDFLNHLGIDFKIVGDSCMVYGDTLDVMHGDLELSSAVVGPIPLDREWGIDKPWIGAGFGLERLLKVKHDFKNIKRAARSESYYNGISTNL

O=C(O)C1CCC=N1 (racemic) [P5C, Ammonium DL-1-pyrroline-5-carboxylate]
full-length protein production / PCL biosynthesis from precursor (HK100 cells): failed to produce full-length protein; also recorded: not sufficient to support PCL biosynthesis
Bradford (HK100 cells; [3]): 0.075 mg/25 ml

N[C@@H](CCCCNC(=O)C1CCC=N1)C(=O)O (mixture of isomers) [PCL-A, (S)-2-amino-6-(3,4-dihydro-2H-pyrrole-2-carboxamido) hexanoic acid]
incorporation into protein (full-length FAS-TE) (HK100 cells; Escherichia coli cells with only pylS and pylT genes): incorporated with high efficiency; also recorded: incorporated into proteins
Bradford (HK100 cells; purified FAS-TE from HK100 cells with pylS/pylT genes only (lanes 1-4)): 0.539 mg/25 ml

Nc1ccc([N+](=O)[O-])cc1C(=O)c1ccccc1 [2-ANBP, 2-amino-5-nitro-benzophenone]
solubility [1]: low solubility

N[C@@H](CCCCNC(=O)OC1CCCC1)C(=O)O [CYC, N-ε-cyclopentyloxycarbonyl-L-lysine, reference compound]
production of full-length hRBP4 (mutant #6) in the presence of synthetic pyrrolysine analogue (pylS tRNA synthetase): protein production to a level similar to D-ornithine; also recorded: measurable protein band

N=C(N)NCCC[C@@H](N)C(=O)O [D-arginine]
production of full-length hRBP4 Phe122PCL protein in the presence of putative precursor (HEK293F cells): above background protein production

N[C@H](CCC(=O)O)C(=O)O [D-glutamic acid]
production of full-length hRBP4 Phe122PCL protein in the presence of putative precursor (HEK293F cells): did not result in full-length protein production above background

NCCC[C@@H](N)C(=O)O [D-ornithine]
production of full-length hRBP4 Phe122PCL protein in the presence of putative precursor (HEK293F cells): measurable protein band

O=C(O)[C@H]1CCCN1 [D-proline]
production of full-length hRBP4 Phe122PCL protein in the presence of putative precursor (HEK293F cells): did not result in full-length protein production above background

NCCC[C@@H](N)C(=O)NCCCC[C@H](N)C(=O)O [Lys-Nε-D-ornithine, (2S)-2-amino-6-((R)-2,5-diaminopentanamido)hexanoic acid]
substrate for PylD (PylD): substrate for PylD
full-length protein production / PCL biosynthesis from precursor (HK100 cells; listed as Lys-Nε-D-Orn): resulted in protein expression with PCL incorporated at the amber codon
full-length protein production / PCL biosynthesis from precursor (HK100 cells; listed as Lys-Nε-D-orn): substantial amounts of full-length protein
Bradford (HK100 cells; [3]): 1.66 mg/25 ml

O=C(O)C1=NCCC1 [P2C, 3,4-dihydro-2H-pyrrole-5-carboxylate]
full-length protein production / PCL biosynthesis from precursor (HK100 cells): failed to produce full-length protein; also recorded: not sufficient to support PCL biosynthesis
Bradford (HK100 cells; [3]): 0.103 mg/25 ml

CC(=O)CC(=O)NCCCC[C@H](N)C(=O)O [TU3000-016, (S)-2-amino-6-(3-oxobutanamido)hexanoic acid hydrochloride]
compound stability [2]: not stable
production of full-length hRBP4 (mutant #6) in the presence of synthetic pyrrolysine analogue (pylS tRNA synthetase; hydrochloride): measurable but much lower incorporation; also recorded: viable substrate for the pylS tRNA synthetase
